Where two headings read alike, the source gives them in different places.
Key:
[1] = system: Bladder carcinoma 5637 cells; assay type: cell-based
Method: Testing was performed essentially as previously described, [44]. Concentration-response testing was performed over a range 0.58–300 µM in a […] plate format. Bladder carcinoma 5637 cells (ATCC HTB-9) were added to the compounds, and 72 hrs later cell viability was measured using CellTiter Glo (Promega). […] Hyamine was used as a positive cytotoxic control. All wells contained 0.5% DMSO.

E. coli UTI89 = assay: Human serum sensitization (MTT); assay type: cell-based, Escherichia coli; conditions: 50 µM, pooled human serum, vs DMSO p = 0.0067
[2] = assay type: physicochemical
Method: SI2-Supporting Information- Goller et al.
Experimental procedures for aqueous and LB medium solubility, hepatic microsome stability, PAMPA permeability, and plasma stability
Aqueous and LB Medium Solubility: Solubility analysis was performed using a direct UV kinetic solubility method in a 96-well format. All liquid dispense and transfer steps were performed with the Freedom Evo automated liquid handler (Tecan US). Solubility measurements were performed in buffer solution (PBS (pH 7.4) or LB medium), in duplicate. Samples were incubated at room temperature for a minimum of 18 hrs to achieve equilibrium, then filtered (filter plate, pION Inc, P/N 110322) to remove any precipitate formed. The concentration of the compounds was measured by UV absorbance (250-498 nm) using the Infinite M200 (Tecan US) and compared to the spectra of the precipitation-free reference solutions. Spectroscopically pure 1-Propanol (Sigma P/N 256404) was used as a cosolvent to suppress precipitation in the reference solutions.
The solubility of each compound was determined using µSOL Evolution Plus software v3.2 (pION Inc) and is expressed as the concentration (µg/mL) of a solute in a saturated solution. […]
Hepatic Microsome Stability: Metabolic stability was assessed in the presence of human liver microsomes (XenoTech, P/N H0630) and mouse liver microsomes (XenoTech, P/N M1000). […]

Adenosine A3 = Adenosine A3 (Homo sapiens, UniProt P0DMS8); assay type: binding; conditions: 10 µM
Adenosine A3, sequence (P0DMS8 whole entry): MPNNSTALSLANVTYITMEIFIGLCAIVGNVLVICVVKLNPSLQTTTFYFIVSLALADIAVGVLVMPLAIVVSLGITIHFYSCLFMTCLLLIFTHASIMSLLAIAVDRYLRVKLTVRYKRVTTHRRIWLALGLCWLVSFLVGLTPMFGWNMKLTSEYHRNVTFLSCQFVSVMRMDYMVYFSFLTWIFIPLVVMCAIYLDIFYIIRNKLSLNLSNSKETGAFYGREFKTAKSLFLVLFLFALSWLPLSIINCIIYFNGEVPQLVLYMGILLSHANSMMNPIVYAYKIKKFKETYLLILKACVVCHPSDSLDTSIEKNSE

Bradykinin B1 = target: T1, Bradykinin B1 (Homo sapiens, UniProt P46663); assay type: binding; conditions: 10 µM
T1 construct: Human IMR-90 cells; host or cells: IMR-90 cells

Endothelin ETB = target: T2, Endothelin ETB (Homo sapiens, UniProt P24530); assay type: binding; conditions: 10 µM
T2 construct: host or cells: CHO-K1 cells
T2 sequence (P24530 27-442): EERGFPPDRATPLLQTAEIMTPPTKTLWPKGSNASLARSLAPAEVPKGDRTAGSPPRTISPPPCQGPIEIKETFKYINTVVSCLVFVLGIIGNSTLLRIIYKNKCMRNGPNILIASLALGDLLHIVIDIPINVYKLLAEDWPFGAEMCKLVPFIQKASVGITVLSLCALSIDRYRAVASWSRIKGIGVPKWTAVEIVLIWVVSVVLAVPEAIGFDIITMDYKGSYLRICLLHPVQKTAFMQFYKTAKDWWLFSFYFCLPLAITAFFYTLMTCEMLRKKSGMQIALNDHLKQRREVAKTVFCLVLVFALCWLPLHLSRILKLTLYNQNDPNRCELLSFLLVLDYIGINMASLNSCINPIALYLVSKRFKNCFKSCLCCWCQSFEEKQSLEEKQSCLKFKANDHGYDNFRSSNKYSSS

Estrogen ERα = target: T3, Estrogen ERα (Homo sapiens, UniProt P03372); assay type: binding; conditions: 10 µM
T3 construct: host or cells: insect Sf9 cells
T3 sequence (P03372 whole entry): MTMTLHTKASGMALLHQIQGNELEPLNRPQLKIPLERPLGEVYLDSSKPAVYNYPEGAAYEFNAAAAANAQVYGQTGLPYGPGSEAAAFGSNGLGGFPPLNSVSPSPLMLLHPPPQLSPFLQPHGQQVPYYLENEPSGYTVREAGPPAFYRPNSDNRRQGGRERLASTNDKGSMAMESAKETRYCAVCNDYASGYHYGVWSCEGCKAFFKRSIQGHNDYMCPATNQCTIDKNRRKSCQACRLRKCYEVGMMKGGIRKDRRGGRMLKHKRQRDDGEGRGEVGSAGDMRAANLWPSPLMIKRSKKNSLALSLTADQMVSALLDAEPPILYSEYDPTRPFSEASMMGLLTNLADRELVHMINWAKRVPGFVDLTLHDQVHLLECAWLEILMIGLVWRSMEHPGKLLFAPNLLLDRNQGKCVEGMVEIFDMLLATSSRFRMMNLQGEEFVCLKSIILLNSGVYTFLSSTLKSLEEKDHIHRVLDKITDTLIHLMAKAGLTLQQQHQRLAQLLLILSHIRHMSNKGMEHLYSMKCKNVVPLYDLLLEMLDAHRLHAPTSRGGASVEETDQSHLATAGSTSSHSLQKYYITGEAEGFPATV

Histamine H1 = target: T4, Histamine H1 (Homo sapiens, UniProt P35367); assay type: binding; conditions: 10 µM
T4 construct: host or cells: CHO-K1 cells
T4 sequence (P35367 whole entry): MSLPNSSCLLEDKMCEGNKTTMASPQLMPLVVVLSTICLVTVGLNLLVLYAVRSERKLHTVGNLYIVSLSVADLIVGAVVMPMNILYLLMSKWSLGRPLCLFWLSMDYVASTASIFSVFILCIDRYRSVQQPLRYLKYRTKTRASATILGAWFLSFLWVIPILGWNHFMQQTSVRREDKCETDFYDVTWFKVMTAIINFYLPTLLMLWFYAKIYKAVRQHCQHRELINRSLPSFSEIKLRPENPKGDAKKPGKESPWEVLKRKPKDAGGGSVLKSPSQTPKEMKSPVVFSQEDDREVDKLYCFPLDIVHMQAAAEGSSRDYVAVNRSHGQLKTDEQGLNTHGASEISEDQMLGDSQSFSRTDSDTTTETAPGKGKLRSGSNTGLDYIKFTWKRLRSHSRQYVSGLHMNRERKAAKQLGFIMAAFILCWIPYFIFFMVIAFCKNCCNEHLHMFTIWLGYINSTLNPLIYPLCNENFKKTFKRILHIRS

Melatonin MT1 = target: T5, Melatonin MT1 (Homo sapiens, UniProt P48039); assay type: binding; conditions: 10 µM
T5 construct: host or cells: CHO-K1 cells
T5 sequence (P48039 whole entry): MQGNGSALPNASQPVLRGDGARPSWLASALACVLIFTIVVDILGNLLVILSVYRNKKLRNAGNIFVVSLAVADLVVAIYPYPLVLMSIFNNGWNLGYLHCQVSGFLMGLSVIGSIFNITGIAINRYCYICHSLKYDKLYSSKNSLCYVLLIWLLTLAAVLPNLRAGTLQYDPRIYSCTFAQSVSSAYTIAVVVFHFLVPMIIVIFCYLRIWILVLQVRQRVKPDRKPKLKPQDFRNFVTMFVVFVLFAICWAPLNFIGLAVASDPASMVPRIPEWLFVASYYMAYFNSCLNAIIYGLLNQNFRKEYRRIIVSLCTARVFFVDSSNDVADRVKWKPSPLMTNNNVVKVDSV

Neuropeptide Y Y2 = target: T6, Neuropeptide Y Y2 (Homo sapiens, UniProt P49146); assay type: binding; conditions: 10 µM
T6 construct: Human KAN-TS cells; host or cells: KAN-TS cells
T6 sequence (P49146 whole entry): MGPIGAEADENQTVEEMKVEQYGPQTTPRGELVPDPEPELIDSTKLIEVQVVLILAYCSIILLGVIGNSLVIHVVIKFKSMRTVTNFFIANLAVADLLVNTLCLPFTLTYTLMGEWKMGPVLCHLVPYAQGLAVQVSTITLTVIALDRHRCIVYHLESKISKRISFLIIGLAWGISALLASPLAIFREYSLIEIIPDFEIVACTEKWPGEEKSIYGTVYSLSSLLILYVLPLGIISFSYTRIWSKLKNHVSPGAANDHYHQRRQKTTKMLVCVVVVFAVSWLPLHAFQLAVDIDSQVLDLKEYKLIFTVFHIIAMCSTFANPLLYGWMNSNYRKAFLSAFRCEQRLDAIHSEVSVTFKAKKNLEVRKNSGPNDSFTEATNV

Nicotinic Acetylcholine = assay: Radioligand binding 258590; parameters: species or system human; conditions: 10 µM
Opiate κ(OP2, KOP) = Opiate κ(OP2, KOP) (Homo sapiens, UniProt P41145); assay type: binding; conditions: 10 µM
Opiate µ(OP3, MOP) = target: T7, Opiate µ(OP3, MOP) (Homo sapiens, UniProt P35372); assay type: binding; conditions: 10 µM
T7 construct: host or cells: CHO-K1 cells
T7 sequence (P35372 whole entry): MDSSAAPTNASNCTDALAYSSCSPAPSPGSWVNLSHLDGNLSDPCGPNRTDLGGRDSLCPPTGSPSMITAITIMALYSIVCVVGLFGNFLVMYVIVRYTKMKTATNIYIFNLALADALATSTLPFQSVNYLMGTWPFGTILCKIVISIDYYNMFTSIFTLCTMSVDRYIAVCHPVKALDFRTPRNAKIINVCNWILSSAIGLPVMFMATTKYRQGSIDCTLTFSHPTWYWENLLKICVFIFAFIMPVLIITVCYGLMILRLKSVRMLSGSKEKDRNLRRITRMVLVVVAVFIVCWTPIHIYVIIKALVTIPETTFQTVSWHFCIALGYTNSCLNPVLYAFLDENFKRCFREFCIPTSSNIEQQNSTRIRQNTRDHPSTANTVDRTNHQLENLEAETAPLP

Potassium Channel [KATP] = target: T8, Potassium Channel [KATP] (Cricetus cricetus, UniProt Q09427); assay type: binding, hamster; conditions: 10 µM
T8 construct: Hamster pancreatic HIT-T15 beta; host or cells: HIT-T15 hamster pancreatic beta cells

Purinergic P2X = assay: Radioligand binding 268700; parameters: species or system rabbit; conditions: 10 µM
Purinergic P2Y = assay: Radioligand binding 268810; parameters: species or system rat; conditions: 10 µM
[3] = target: T9, Serotonin (5-Hydroxytryptamine) 5-HT1A (Homo sapiens, UniProt P08908); assay: Radioligand binding 271110; conditions: 10 µM
T9 construct: host or cells: CHO-K1
T9 sequence (P08908 whole entry): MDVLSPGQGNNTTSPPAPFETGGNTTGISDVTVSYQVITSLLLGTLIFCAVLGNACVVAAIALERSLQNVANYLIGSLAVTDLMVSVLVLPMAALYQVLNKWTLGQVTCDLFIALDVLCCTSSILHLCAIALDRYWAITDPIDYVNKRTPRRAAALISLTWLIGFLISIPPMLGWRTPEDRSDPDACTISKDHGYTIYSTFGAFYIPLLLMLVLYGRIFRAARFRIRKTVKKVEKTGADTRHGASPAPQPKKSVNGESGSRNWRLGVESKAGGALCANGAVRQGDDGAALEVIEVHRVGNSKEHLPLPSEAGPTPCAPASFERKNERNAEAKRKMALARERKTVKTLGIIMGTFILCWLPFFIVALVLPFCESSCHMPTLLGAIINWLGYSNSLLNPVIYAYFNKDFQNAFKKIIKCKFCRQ

Sigma σ1 = Sigma σ1 (Homo sapiens, UniProt Q99720); assay type: binding; conditions: 10 µM
Sigma σ1, sequence (Q99720 whole entry): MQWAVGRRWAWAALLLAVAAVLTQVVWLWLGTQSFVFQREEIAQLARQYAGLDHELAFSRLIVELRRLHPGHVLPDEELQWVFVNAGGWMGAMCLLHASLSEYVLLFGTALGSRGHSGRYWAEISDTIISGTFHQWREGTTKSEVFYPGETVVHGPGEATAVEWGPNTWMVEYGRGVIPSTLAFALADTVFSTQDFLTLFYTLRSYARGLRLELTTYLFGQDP

[4] = Human
[5] = Human; remark: listed apart in the source
Potassium Channel hERG = Potassium Channel hERG (Homo sapiens, UniProt Q12809); conditions: 10 µM
Potassium Channel hERG, sequence (Q12809 whole entry): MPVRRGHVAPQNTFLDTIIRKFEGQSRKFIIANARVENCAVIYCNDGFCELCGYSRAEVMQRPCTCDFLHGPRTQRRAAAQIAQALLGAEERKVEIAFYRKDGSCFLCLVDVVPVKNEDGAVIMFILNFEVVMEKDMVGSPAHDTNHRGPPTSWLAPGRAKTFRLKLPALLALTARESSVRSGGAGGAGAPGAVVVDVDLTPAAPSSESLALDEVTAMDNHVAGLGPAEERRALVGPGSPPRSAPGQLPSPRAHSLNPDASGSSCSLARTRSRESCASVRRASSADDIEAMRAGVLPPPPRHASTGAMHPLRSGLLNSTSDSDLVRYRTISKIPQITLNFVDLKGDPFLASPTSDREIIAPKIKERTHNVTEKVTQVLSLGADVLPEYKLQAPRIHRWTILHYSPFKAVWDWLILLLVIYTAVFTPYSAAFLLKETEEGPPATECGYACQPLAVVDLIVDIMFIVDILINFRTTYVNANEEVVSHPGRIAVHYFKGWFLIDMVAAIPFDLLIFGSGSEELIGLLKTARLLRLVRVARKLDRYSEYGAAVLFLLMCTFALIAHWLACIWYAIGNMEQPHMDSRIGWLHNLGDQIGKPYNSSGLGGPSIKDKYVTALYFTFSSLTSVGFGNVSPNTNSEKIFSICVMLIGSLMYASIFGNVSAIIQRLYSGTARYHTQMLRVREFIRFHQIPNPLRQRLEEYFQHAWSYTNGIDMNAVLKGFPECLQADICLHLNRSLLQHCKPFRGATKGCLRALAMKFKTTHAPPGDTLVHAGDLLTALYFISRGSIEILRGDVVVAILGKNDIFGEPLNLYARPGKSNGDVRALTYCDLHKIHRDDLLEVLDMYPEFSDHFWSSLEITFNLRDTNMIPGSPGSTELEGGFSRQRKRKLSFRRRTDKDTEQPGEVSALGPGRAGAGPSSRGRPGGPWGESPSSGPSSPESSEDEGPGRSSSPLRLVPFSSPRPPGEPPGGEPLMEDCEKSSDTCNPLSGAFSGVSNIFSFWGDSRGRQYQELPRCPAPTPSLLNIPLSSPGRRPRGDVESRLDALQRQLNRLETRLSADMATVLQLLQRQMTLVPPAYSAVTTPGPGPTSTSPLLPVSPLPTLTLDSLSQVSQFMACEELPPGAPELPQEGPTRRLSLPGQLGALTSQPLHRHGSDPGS

## CCOc1ccc(-c2cc(NC(=O)c3c(F)cccc3F)c(C(=O)O)s2)cc1 [DU011]
[1]
  Selectivity (CC50/IC50): 13.3
[1]; 5637 cells, 72 hrs, ± SEM, read-out: Cytotoxicity (CC50)
  CC50: 51.6 ± 13.6 µM
E. coli UTI89
  serum-mediated killing of UPEC (MTT): further increased serum-mediated killing
[2]; 1× PBS
  Aqueous Solubility: 92.6 µg/mL
[2]; LB medium
  Aqueous Solubility: 68 µg/mL
Adenosine A3
  % Inh.: -5%
Bradykinin B1
  % Inh.: 12%
Endothelin ETB
  % Inh.: 3%
Estrogen ERα
  % Inh.: 13%
Histamine H1
  % Inh.: -16%
Melatonin MT1
  % Inh.: 7%
Neuropeptide Y Y2
  % Inh.: -6%
Nicotinic Acetylcholine
  % Inh.: 22%
Opiate κ(OP2, KOP)
  % Inh.: 10%
Opiate µ(OP3, MOP)
  % Inh.: 1%
Potassium Channel [KATP]
  % Inh.: 12%
Purinergic P2X
  % Inh.: 6%
Purinergic P2Y
  % Inh.: 1%
[3]
  % Inh.: 11%
Sigma σ1
  % Inh.: 9%
[4]
  Hepatic Microsome Stability, percent remaining at 1 hr: 89.64%
Donor pH 5.0, acceptor pH 7.4
  PAMPA Permeability Pe: 14 ×10⁻⁶ cm/s
Donor pH 6.2, acceptor pH 7.4
  PAMPA Permeability Pe: 209 ×10⁻⁶ cm/s
Donor pH 7.4, acceptor pH 7.4
  PAMPA Permeability Pe: 52 ×10⁻⁶ cm/s
[5]
  Plasma Stability, percent remaining at 3 hrs: 95.31%
Potassium Channel hERG
  % Inh.: 9%

— article PMC4077706, “Lifting the Mask: Identification of New Small Molecule Inhibitors of Uropathogenic Escherichia coli Group 2 Capsule Biogenesis” (PLoS ONE, 2014)
